# Reference: PubChem BioAssay AID504874 (NMMLSC, 2011)
# The source made the active and inactive calls.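 How the source made its calls: active means normalized viability below 40% relative to DMSO and staurosporine controls, called cytotoxic; inactive means the rest.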
# System: L1210 murine leukemia viability, fluorescein diacetate flow cytometry, 48 h
# Experiment: viability of murine L1210 leukemia line – cell-based, cytotoxicity control for T cell immune modulator project (AID 504874)
# Conditions: at 20 µM; stronger effect = lower value
row,SMILES,viability
1,O=C(COC(=O)C12CC3CC(CC(Br)(C3)C1)C2)Nc1cccc(S(=O)(=O)N2CCOCC2)c1,99.3% (inactive)
2,CCCNC(=O)c1nc2ncc(Br)cn2n1,103% (inactive)
3,O=C(NCc1cccnc1)C(=O)NCC(c1ccco1)N1CCN(c2ccccc2)CC1 (stereo not drawn),106% (inactive)
4,O=C(Cn1cc(C(F)(F)F)cc(Cl)c1=O)NCCc1ccc(Cl)cc1Cl,103% (inactive)
5,COc1ccc(C(O)c2coc3ccc(O)c(CN(C)C)c23)cc1 (stereo not drawn),87.4% (inactive)
6,c1ccc(COc2ccc(OCCN3CCCCC3)cc2)cc1,57.1% (inactive)
7,CC(=O)Nc1ccc(S(=O)(=O)NC2CCSc3ccccc32)cc1 (stereo not drawn),110% (inactive)
8,CC1CCCCC1NC(=O)COC(=O)c1ccc2ncsc2c1 (stereo not drawn),92.6% (inactive)
9,O=C(c1ccc(N2C(=O)C3CC=C(Cl)CC3C2=O)cc1)N1CCCCC1 (stereo not drawn),107% (inactive)
10,CCCc1nnc(NC(=O)c2ccc(S(=O)(=O)N(C)c3ccccc3OC)cc2)s1,59.6% (inactive)
11,COc1ccc(C2=Nc3cc(C)ccc3OC2)cc1,108% (inactive)
12,CN1CCN(S(=O)(=O)c2ccc(C(=O)Nc3ccccc3)cc2)CC1,108% (inactive)
13,COCCCN1CCc2[nH]c(=S)[nH]c(=O)c2C1,102% (inactive)
14,O=C(CS(=O)(=O)Cc1ccccc1)N1CCc2ccccc21,102% (inactive)
15,CC(=O)c1ccc(-c2csc(N3CCC(C(N)=O)CC3)n2)cc1,70.7% (inactive)
16,Cc1cc(Cl)c(OCCCSc2nc(C)cc(=O)[nH]2)c(Br)c1,107% (inactive)
17,O=C(O)C1CCC(Cn2c(SCc3cc(=O)n4cc(Cl)ccc4n3)nc3ccsc3c2=O)CC1 (stereo not drawn),111% (inactive)
18,CCOC(=O)c1c(C=O)c2ccccc2n1CC,104% (inactive)
19,CCOC(=O)C1CCCN(S(=O)(=O)c2ccc(F)c(C(=O)Nc3ccc(F)c(F)c3)c2)C1 (stereo not drawn),91.6% (inactive)
20,COC(=O)c1ccccc1NC(=O)C1CCN(C(=O)c2cc(OC)cc(OC)c2)CC1,108% (inactive)
21,CCOC(=O)c1c(N2C(=O)CC(Sc3ccccc3C(=O)O)C2=O)sc2c1CCCC2 (stereo not drawn),98% (inactive)
22,Cc1ccccc1C(=O)NCC(=O)N1CCN(C/C=C/c2ccccc2)CC1,83.1% (inactive)
23,Cc1ccc(NC(=O)COC(=O)CCc2c[nH]c3ccccc23)c(C)c1,122% (inactive)
24,COc1ccc(CNC(=O)c2cccnc2SC)cc1OC,101% (inactive)
25,COc1ccc(/C=C2\SC(=S)N(CCC(=O)N3CCOCC3)C2=O)cc1,90.8% (inactive)
26,CCOC(=O)c1ccc(NC(=O)CN2C(=O)NC3(CCCCCCC3)C2=O)cc1,98.6% (inactive)

row,SMILES,viability
1,CCOc1ccc(CCNC(=O)CCS(=O)(=O)c2ccc(C)cc2)cc1OCC,90.1% (inactive)
2,Cc1cccc(NC(=O)C2CCN(S(=O)(=O)c3c(C)[nH]c(=O)[nH]c3=O)CC2)c1,110% (inactive)
3,CN1CCN(S(=O)(=O)c2cccc(C(=O)Nc3cc(C(F)(F)F)ccc3N3CCCCC3)c2)CC1,102% (inactive)
4,COc1ccc(Nc2ccccc2N)cc1,90.2% (inactive)
5,Cc1ncc([N+](=O)[O-])n1Cc1cccc(F)c1,104% (inactive)
6,CN(CC(=O)Nc1cc(S(=O)(=O)N2CCCC2)ccc1Cl)Cc1ccc2c(c1)OCO2,92.1% (inactive)
7,O=C(OCCOc1cccc(Cl)c1)c1ccc(F)c(S(=O)(=O)N2CCOCC2)c1,109% (inactive)
8,CCN(CC)S(=O)(=O)c1ccc(Cl)c(NC(=O)COC(=O)C2CCCCC2)c1,102% (inactive)
9,CN(C)S(=O)(=O)c1ccc(C(=O)NCCc2ccco2)cc1,108% (inactive)
10,Cc1cc(=O)oc2c3c(cc(OCC(=O)NCc4ccncc4)c12)OC(C)(C)CC3,110% (inactive)
11,Cc1sc2ncnc(NCC(C)(C)N3CCOCC3)c2c1C,-4.46%
12,CCOC(=O)N1CCN(C(=O)c2ccc(CS(=O)Cc3ccc(C)cc3)o2)CC1 (stereo not drawn),107% (inactive)
13,CCC1(C)NC(=O)N(CC(=O)N2N=C(c3ccccc3)CC2c2ccc(OC)cc2)C1=O (stereo not drawn),103% (inactive)
14,O=C(CC1=NCCNC(c2ccccc2)C1)c1ccccc1O (stereo not drawn),115% (inactive)
15,O=C(NCC1CCCCC1)c1ccc(Cl)c(S(=O)(=O)N2CCOCC2)c1,114% (inactive)
16,Cc1ccc(N2CC(C(=O)NC3=NCCS3)CC2=O)cc1 (stereo not drawn),102% (inactive)
17,Cc1ccc(Cn2c([N+](=O)[O-])cnc2C)cc1,104% (inactive)
18,Cc1cc(C)n(C(=O)c2sc3cc(F)ccc3c2Cl)n1,107% (inactive)
19,Cc1ccc(C(=O)NCCCN2CCOCC2)c(C)c1,108% (inactive)
20,Cc1ccc(S(=O)(=O)N2CCN(S(=O)(=O)N(C)C)CC2)c(C)c1,105% (inactive)
21,COc1ccc(NC(=O)CC2C(=O)N(Cc3ccccc3)C(=S)N2CCN2CCOCC2)cc1 (stereo not drawn),98.8% (inactive)
22,CC(C)(C)NC(=O)COc1ccc(CNCc2cccnc2)cc1,108% (inactive)
23,COc1ccc(S(=O)(=O)N2CCCCC2)cc1NC(=O)c1cnc(C)cn1,105% (inactive)
24,COc1ccc(S(=O)(=O)N2CCCC2C(=O)Nc2ccc(C(C)=O)cc2)cc1 (stereo not drawn),112% (inactive)
25,Cc1ccc(OCCOC(=O)c2cc(S(=O)(=O)N3CCCCC3)ccc2N2CCOCC2)cc1,92.3% (inactive)
26,COc1ccc([N+](=O)[O-])cc1NC(=O)c1ccc(N(Cc2ccccc2C)S(C)(=O)=O)cc1,111% (inactive)

row,SMILES,viability
1,CCCCn1nc(C(=O)N2CCN(S(=O)(=O)c3ccccc3)CC2)c2ccccc2c1=O,100% (inactive)
2,O=C(CCC(=O)N1CCOCC1)NCc1cccc(C(F)(F)F)c1,110% (inactive)
3,O=C1CC(c2nc3ccccc3[nH]2)CN1Cc1ccccc1 (stereo not drawn),103% (inactive)
4,CCOc1ccc(-c2nc(N)ncc2-c2ccccc2)c(O)c1,105% (inactive)
5,O=C(NCCC1=CCCCC1)C(=O)NCC(c1ccco1)N1CCN(c2ccccc2F)CC1 (stereo not drawn),109% (inactive)
6,COCc1c(C(=O)Nc2cccc(S(=O)(=O)N3CCCCC3)c2)oc2ccccc12,78.5% (inactive)
7,O=C(NNS(=O)(=O)c1ccc2ccccc2c1)c1cccs1,110% (inactive)
8,Cn1c(CNC(=O)CNC(=O)c2ccc(F)cc2)cc(=O)n(C)c1=O,100% (inactive)
9,CCCCOc1ccc(C(=O)NCC(=O)N2CCN(C(=O)c3ccco3)CC2)cc1,107% (inactive)
10,COc1ccc(NC(=O)CSCC(=O)Nc2cccc(S(=O)(=O)N3CCCCCC3)c2)cc1,68.7% (inactive)
11,CCOC(=O)c1ccc(S(=O)(=O)N2CCN(C3CCCC3)CC2)cc1,102% (inactive)
12,CC(Sc1nc2ccccc2[nH]1)C(=O)NC1CCCCC1C (stereo not drawn),98.6% (inactive)
13,COc1cccc(NC(=O)Nc2ccc3nc(C)c(C)nc3c2)c1,82.2% (inactive)
14,Cc1ccc(S(=O)(=O)N2CCN(C(=O)CNC(=O)c3ccc(Cl)cc3)CC2)cc1,96.1% (inactive)
15,CCC(C(=O)Nc1ccccc1)c1ccccc1 (stereo not drawn),98.3% (inactive)
16,Cc1ccccc1C(=O)N1CCC(C(=O)Nc2ccc(C)c(S(=O)(=O)N3CCCCC3)c2)CC1,15.6%
17,CN(C)S(=O)(=O)c1cccc(-n2sc3ccccc3c2=O)c1,35.5%
18,CCOCC(=O)Nc1ccc(S(=O)(=O)N2CCC(c3nc4ccccc4[nH]3)CC2)cc1,106% (inactive)
19,O=C(NCCN1CCN(c2ccccc2)CC1)c1cccc(Br)c1,96.4% (inactive)
20,COc1ccc(N2CC(C(=O)NC(C)C(=O)NCc3ccccc3OC)CC2=O)cc1 (stereo not drawn),104% (inactive)
21,NC(=O)C1CCN(c2nc(-c3cc4ccccc4o3)cs2)CC1,109% (inactive)
22,COc1ccccc1NS(=O)(=O)c1cc(NC(=O)CNC(=O)c2cc(C)cc(C)c2)ccc1C,61.6% (inactive)
23,COc1ccccc1CNC(=O)COc1ccc(C)cc1,99.1% (inactive)
24,CCN(CC)CCNC(=O)CCCNC(=O)Cn1cnc2sc(C)c(C)c2c1=O,104% (inactive)
25,Cc1ccc(O)c(CCc2ccccc2)n1,116% (inactive)
26,CCN(CC)C(=O)N1CCN(S(=O)(=O)c2ccc(C)cc2)CC1,96.8% (inactive)
